In BindingDB's records for PubMed 11082457 (Centre De Recherches De Croissy, 2000):

Columns and labels:
[1] = molecular target: T1, Amine oxidase [flavin-containing] B (Rattus norvegicus, UniProt P19643)
T1 sequence (P19643 whole entry): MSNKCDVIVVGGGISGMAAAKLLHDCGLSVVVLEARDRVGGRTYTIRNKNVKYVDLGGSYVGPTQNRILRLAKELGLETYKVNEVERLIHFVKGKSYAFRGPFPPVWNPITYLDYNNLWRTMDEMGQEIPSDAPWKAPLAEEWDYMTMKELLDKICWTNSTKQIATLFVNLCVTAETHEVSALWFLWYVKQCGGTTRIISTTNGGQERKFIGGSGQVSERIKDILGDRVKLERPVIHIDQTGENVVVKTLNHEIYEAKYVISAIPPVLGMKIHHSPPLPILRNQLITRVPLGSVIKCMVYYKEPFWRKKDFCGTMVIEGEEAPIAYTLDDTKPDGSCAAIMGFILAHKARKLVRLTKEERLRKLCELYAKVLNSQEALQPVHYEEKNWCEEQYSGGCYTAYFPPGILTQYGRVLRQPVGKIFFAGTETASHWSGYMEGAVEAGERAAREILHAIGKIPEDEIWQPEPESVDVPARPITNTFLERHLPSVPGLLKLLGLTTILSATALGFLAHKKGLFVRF

[2] = molecular target: T2, Alpha-1B adrenergic receptor (Rattus norvegicus, UniProt P15823)
T2 sequence (P15823 whole entry): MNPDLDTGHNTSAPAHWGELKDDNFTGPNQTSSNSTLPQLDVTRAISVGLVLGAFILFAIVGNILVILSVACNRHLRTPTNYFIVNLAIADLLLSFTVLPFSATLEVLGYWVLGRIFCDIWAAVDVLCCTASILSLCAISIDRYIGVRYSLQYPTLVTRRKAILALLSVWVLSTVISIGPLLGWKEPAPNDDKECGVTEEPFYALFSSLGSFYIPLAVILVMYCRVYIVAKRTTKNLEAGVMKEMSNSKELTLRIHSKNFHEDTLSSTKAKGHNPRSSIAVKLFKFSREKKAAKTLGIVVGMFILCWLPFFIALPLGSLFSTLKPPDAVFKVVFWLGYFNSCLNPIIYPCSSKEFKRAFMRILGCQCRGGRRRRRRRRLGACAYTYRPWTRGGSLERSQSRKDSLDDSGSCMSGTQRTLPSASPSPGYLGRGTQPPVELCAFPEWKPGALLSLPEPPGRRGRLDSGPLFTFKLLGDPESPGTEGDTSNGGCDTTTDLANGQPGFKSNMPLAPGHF

Nischarin [3] = molecular target: T3, Nischarin (Bos mutus, UniProt L8IEU8)
T3 sequence (L8IEU8 whole entry): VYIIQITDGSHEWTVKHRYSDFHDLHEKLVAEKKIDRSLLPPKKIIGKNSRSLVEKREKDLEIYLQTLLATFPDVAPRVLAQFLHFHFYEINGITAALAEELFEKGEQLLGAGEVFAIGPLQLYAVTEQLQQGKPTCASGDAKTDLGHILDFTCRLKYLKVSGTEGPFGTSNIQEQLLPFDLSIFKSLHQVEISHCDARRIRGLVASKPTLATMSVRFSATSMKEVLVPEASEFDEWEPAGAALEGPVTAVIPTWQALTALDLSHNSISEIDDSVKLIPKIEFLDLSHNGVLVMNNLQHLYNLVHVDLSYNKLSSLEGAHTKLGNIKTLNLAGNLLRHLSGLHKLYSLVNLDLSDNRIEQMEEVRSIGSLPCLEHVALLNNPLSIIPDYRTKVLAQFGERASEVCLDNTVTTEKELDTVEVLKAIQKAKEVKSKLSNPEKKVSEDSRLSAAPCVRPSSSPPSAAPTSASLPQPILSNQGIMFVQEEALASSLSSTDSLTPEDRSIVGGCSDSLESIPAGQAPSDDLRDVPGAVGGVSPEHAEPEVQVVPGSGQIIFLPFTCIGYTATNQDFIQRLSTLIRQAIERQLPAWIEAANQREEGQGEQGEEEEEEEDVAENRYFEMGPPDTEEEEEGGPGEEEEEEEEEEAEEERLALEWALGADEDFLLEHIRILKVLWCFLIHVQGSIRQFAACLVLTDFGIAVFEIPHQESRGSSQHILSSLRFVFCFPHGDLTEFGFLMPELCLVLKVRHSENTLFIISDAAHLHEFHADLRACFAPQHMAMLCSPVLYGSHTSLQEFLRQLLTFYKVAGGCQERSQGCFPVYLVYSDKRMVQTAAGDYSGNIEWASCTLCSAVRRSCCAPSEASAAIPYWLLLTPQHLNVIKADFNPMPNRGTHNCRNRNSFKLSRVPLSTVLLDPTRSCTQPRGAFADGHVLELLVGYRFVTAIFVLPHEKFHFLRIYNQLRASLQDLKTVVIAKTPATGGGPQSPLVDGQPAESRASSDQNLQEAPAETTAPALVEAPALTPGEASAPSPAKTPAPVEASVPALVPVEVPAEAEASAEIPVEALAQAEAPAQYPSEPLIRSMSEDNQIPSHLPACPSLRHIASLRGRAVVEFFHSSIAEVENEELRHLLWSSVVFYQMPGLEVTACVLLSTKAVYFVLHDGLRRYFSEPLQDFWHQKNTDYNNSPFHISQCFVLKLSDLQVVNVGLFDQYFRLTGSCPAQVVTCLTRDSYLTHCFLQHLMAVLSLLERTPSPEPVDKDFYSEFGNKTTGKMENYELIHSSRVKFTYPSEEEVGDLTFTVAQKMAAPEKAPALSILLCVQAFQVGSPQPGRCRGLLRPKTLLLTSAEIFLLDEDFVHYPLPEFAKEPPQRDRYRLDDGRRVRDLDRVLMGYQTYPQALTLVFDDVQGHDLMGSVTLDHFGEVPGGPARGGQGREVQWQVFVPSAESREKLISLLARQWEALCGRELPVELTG

Nischarin [4] = molecular target: Nischarin (Rattus norvegicus, UniProt Q4G017)
Chain of Nischarin (Rattus norvegicus, UniProt Q4G017) (Q4G017 whole entry): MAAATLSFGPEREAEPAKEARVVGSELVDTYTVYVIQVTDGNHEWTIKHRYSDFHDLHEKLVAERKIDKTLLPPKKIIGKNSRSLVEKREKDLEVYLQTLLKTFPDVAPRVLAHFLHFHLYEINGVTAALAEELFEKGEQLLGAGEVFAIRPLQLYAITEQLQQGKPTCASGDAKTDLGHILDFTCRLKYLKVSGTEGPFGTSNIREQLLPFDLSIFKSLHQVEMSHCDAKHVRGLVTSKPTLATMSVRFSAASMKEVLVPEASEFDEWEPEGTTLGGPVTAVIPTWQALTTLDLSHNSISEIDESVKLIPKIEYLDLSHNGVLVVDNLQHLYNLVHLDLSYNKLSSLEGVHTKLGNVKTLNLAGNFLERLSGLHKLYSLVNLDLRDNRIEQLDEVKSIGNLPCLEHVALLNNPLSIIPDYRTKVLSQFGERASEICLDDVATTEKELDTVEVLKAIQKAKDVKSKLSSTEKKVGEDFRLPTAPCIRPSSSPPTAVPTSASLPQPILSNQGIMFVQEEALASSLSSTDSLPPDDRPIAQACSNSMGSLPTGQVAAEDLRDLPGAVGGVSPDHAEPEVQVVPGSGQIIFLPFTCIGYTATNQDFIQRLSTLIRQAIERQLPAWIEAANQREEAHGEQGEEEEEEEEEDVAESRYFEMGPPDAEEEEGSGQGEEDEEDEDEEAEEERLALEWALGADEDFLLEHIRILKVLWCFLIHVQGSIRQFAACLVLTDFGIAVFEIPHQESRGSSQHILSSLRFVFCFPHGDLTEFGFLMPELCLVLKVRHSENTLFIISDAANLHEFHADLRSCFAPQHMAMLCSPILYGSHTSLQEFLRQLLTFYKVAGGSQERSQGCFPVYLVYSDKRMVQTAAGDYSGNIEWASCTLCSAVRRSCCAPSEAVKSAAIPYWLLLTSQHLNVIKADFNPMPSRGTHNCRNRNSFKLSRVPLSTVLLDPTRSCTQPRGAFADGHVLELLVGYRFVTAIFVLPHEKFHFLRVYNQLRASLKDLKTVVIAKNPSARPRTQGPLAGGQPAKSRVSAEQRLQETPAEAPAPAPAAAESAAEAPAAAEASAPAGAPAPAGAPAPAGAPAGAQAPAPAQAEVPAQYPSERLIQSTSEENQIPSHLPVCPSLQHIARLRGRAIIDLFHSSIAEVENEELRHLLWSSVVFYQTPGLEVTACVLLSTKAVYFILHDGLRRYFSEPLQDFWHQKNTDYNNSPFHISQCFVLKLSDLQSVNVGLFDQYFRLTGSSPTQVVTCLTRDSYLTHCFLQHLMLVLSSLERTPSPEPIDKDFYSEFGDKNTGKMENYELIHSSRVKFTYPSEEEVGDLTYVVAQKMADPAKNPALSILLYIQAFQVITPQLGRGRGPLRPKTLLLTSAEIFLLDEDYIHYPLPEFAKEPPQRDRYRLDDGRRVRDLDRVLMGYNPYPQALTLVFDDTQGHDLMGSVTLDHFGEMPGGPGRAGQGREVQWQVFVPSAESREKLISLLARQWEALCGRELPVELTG

## Cc1cccc([C@@H](C)c2cnc[nH]2)c1C
[1]
  Ki: 1000 nM
[2]
  Ki: 316 nM
Nischarin [3]
  Ki: 200 nM
Nischarin [4]
  Ki: 50.1 nM

## NC1=NC2(CCc3ccccc3C2)CO1 (stereo not drawn) [S18616]
[1]
  Ki: 1000 nM
[2]
  Ki: 100 nM
Nischarin [3]
  Ki: 39.8 nM
Nischarin [4]
  Ki: 79.4 nM
